IC50 data for two compounds are collected here from patent US20160368898A1, “2-PYRIDYLOXY-4-METHYL OREXIN RECEPTOR ANTAGONISTS” (MERCK SHARP & DOHME CORP., priority 2013, published 2016).

The target of assay [1] is T1, human orexin-2 receptor (hOX2R) (Homo sapiens, UniProt O43614).
T1 construct: expressed in transfected cells; host or cells: CHO cells (grown under G418)
T1 sequence (O43614 1-444): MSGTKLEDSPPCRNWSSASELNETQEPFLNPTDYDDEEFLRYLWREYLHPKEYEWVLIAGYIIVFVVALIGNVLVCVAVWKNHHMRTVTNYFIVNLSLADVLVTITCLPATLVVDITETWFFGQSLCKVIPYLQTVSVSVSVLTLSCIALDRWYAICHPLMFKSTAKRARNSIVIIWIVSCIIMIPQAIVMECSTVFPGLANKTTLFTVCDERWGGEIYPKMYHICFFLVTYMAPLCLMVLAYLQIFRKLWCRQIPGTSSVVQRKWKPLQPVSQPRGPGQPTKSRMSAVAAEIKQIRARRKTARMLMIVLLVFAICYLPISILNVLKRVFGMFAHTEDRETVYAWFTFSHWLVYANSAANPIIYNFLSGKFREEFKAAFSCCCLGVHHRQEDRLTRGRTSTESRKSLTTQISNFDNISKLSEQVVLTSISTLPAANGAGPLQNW
The assay is described as follows: FLIPR Ca2+ Flux Assay, CHO cells expressing the human orexin-2 receptor. It is filed as cell-based. The conditions noted are these: agonist 70 pM Ala-6,12 human orexin-A. The protocol:
The utility of the compounds in accordance with the present invention as orexin receptor OX1R and/or OX2R antagonists may be readily determined without undue experimentation by methodology well known in the art, including the “FLIPR Ca^2+ Flux Assay” (Okumura et al., Biochem. Biophys. Res. Comm. 280:976-981, 2001). In a typical experiment the OX1 and OX2 receptor antagonistic activity of the compounds of the present invention was determined in accordance with the following experimental method. For intracellular calcium measurements, Chinese hamster ovary (CHO) cells expressing the rat orexin-1 receptor or the human orexin-2 receptor, are grown in Iscove's modified DMEM containing 2 mM L-glutamine, […], 1% hypoxanthine-thymidine supplement, 100 U/ml penicillin, 100 μg/ml streptomycin and 10% heat-inactivated fetal calf serum (FCS). The cells are seeded at 20,000 cells/well into Becton-Dickinson black 384-well clear bottom sterile plates coated with poly-D-lysine. All reagents were from GIBCO-Invitrogen Corp. The seeded plates are incubated overnight at 37° C. and 5% CO2. Ala-6,12 human orexin-A as the agonist is prepared as a 1 mM stock solution in 1% bovine serum albumin (BSA) and diluted in assay buffer (HBSS containing 20 mM HEPES, 0.1% BSA and 2.5 mM probenecid, pH7.4) for use in the assay at a final concentration of 70 pM. Test compounds are prepared as 10 mM stock solution in DMSO, then diluted in 384-well plates, first in DMSO, then assay buffer. On the day of the assay, cells are washed 3 times with 100 μl assay buffer and then incubated for 60 min (37° C., 5% CO2) in 60 μl assay buffer containing 1 μM Fluo-4AM ester, 0.02% pluronic acid, and 1% BSA. The dye loading solution is then aspirated and cells are washed 3 times with 100 μl assay buffer. 30 μl of that same buffer is left in each well. Within the Fluorescent Imaging Plate Reader (FLIPR, Molecular Devices), test compounds are added to the plate in a volume of 25 μl, incubated for 5 min and finally 25 μl of agonist is added. Fluorescence is measured for each well at 1 second intervals for 5 minutes and the height of each fluorescence peak is compared to the height of the fluorescence peak induced by 70 pM Ala-6,12 orexin-A with buffer in place of antagonist. For each antagonist, IC50 value (the concentration of compound needed to inhibit 50% of the agonist response) is determined. Alternatively, compound potency can be assessed by a radioligand binding assay (described in Bergman et. al. Bioorg. Med. Chem. Lett. 2008, 18, 1425-1430) in which the inhibition constant (Ki) is determined in membranes prepared from CHO cells expressing either the OX1 or OX2 receptor. The intrinsic orexin receptor antagonist activity of a compound which may be used in the present invention may be determined by these assays.
A general note: A change in cytosolic calcium serves as a functional read-out for many receptors and channels.

A further assay addresses T2, hOX1R (Homo sapiens, UniProt O43613).
T2 construct: expressed in transfected cells; host or cells: CHO cells (grown under G418)
T2 sequence (O43613 1-425): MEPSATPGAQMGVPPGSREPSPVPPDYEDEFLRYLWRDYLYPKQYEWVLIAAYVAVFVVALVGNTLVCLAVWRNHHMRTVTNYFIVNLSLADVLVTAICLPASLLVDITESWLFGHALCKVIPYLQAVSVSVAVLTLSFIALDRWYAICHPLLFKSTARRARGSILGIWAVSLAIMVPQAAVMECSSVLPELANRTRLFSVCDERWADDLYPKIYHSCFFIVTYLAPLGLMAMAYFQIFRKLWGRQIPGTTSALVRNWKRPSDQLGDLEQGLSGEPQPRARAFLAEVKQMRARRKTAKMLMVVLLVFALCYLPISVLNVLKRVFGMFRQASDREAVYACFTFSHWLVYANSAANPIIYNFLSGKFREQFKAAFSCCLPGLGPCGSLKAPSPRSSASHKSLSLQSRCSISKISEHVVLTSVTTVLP
The assay is described as follows: FLIPR Ca2+ Flux Assay, CHO cells expressing the orexin-1 receptor. It is filed as cell-based. The conditions noted are these: agonist 70 pM Ala-6,12 human orexin-A.

Each structure is given as a SMILES string.

In general, IC50 refers to the concentration that gives 50% inhibition. Higher therefore signals weaker potency.

Turning to `Cc1ccnc(O[C@@H]2CC[C@@H](C)N(C(=O)c3ccsc3-c3ncccn3)C2)c1` [Example 21, 2-[3-({(2R,5R)-2-methyl-5-[(4-methylpyridin-2-yl)oxy]piperidin-1-yl}carbonyl)thiophen-2-yl]pyrimidine], the concentration for half-maximal inhibition (IC50) in assay [1] is 69 nM; at hOX1R, 2110 nM.

Take `Cc1ccnc(O[C@@H]2CC[C@@H](C)N(C(=O)c3sccc3-c3ncccn3)C2)c1` [Example 22, 2-[2-({(2R,5R)-2-methyl-5-[(4-methylpyridin-2-yl)oxy]piperidin-1-yl}carbonyl)thiophen-3-yl]pyrimidine]: the IC50 in assay [1] is 17 nM; on hOX1R it was 791 nM.
